Experiments:
HCEC = test: Cytotoxicity against HCEC after 24 hrs by sulforhodamine B assay; assay type: cell-based; settings: human
NCI-H157 [1] = test: Cytotoxicity against human NCI-H157 cells at 100 uM after 24 hrs by sulforhodamine B assay; assay type: functional
[2] = molecular target: T1, 5'-nucleotidase (Rattus norvegicus) (UniProt P21588); test: Inhibition of rat recombinant ecto-5'-nucleotidase expressed in african green monkey COS7 cells using adenosine monophosphate as substrate at 1 mM preincubated for 10 mins before substrate addition measured after 10 mins by capillary electrophoresis; assay type: cell-based; settings: COS-7
T1 sequence (whole entry): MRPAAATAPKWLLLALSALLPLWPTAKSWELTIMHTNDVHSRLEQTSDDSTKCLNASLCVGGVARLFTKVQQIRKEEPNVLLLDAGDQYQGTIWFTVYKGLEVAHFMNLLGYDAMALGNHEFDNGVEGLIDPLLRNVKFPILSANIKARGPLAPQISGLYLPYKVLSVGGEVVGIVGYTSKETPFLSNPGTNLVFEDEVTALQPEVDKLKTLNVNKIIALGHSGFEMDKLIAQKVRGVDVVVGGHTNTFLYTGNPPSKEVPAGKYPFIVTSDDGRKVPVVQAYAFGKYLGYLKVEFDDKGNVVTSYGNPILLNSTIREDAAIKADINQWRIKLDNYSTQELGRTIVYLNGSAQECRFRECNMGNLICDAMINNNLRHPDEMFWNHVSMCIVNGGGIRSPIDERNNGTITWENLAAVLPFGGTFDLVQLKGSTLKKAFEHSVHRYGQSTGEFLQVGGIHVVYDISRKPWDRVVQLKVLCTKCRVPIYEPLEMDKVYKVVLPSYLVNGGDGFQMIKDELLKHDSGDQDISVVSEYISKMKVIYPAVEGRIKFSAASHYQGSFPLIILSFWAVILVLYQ

5'-nucleotidase [3] = molecular target: T2, 5'-nucleotidase (Homo sapiens, UniProt P21589); test: Inhibition of human recombinant ecto-5'-nucleotidase expressed in african green monkey COS7 cells using adenosine monophosphate as substrate at 1 mM preincubated for 10 mins before substrate addition measured after 10 mins by capillary electrophoresis; assay type: cell-based; settings: COS-7
5'-nucleotidase [4] = molecular target: T2, 5'-nucleotidase; test: Inhibition of human recombinant ecto-5'-nucleotidase expressed in african green monkey COS7 cells using adenosine monophosphate as substrate preincubated for 10 mins before substrate addition measured after 10 mins by capillary electrophoresis; assay type: cell-based, COS-7
5'-nucleotidase [5] = molecular target: T3, 5'-nucleotidase (Rattus norvegicus, UniProt P21588); test: Inhibition of rat recombinant ecto-5'-nucleotidase expressed in african green monkey COS7 cells using adenosine monophosphate as substrate preincubated for 10 mins before substrate addition measured after 10 mins by capillary electrophoresis; assay type: cell-based, COS-7
T3 sequence (P21588 whole entry): T1 sequence (whole entry)

NCI-H157 [6] = test: Cytotoxicity against human NCI-H157 cells at 10 uM after 24 hrs by sulforhodamine B assay; assay type: functional

T2 sequence (P21589 whole entry): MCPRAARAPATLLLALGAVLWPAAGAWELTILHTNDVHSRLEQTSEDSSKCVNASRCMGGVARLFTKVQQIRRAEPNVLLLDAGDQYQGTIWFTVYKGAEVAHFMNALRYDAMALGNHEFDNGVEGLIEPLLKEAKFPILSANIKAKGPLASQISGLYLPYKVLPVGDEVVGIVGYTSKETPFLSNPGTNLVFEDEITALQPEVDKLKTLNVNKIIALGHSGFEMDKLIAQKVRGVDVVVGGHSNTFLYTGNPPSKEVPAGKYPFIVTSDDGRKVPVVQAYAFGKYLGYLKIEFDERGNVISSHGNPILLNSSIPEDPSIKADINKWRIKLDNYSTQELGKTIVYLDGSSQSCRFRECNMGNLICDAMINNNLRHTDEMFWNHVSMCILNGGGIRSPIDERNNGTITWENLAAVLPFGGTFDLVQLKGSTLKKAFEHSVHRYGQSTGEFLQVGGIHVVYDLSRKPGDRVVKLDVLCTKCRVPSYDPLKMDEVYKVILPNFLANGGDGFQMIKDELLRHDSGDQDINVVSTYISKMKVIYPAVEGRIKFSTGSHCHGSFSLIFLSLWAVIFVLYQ

| inhibition [2] [%] | inhibition (5'-nucleotidase [3]) [%] | IC50 (5'-nucleotidase [4]) [µM] | IC50 (5'-nucleotidase [5]) [µM] | Compound | Activity (HCEC) | Activity (NCI-H157 [1]) [%] | Activity (NCI-H157 [6]) [%] |
| --- | --- | --- | --- | --- | --- | --- | --- |
| 20 | 35 |  |  | Nc1cc(S(=O)(=O)[O-])cc2ccccc12.[Na+] | Non-toxic | 48 |  |
| 40 |  | 30.5 |  | NC(=O)Nc1ccc2cc(S(=O)(=O)O)cc(O)c2c1 | Non-toxic | <40 |  |
|  |  | 13.5 | 18.6 | Cc1ccc2nc(-c3ccc(N)cc3)sc2c1S(=O)(=O)O | Non-toxic | <40 |  |
|  |  |  |  | CC[C@]1(O)C[C@H]2CN(CCc3c([nH]c4ccccc34)[C@@](C(=O)OC)(c3cc4c(cc3OC)N(C=O)[C@H]3[C@@](O)(C(=O)OC)[C@H](OC(C)=O)[C@]5(CC)C=CCN6CC[C@]43[C@@H]65)C2)C1 [VINCRISTINE] |  | 47 |  |
|  |  | 21.8 | 76.6 | Nc1cc(S(=O)(=O)O)cc2cc(S(=O)(=O)O)cc(O)c12 | Non-toxic | <40 |  |
|  |  | 41 | 31.6 | Nc1c(O)cc(S(=O)(=O)O)c2cc([N+](=O)[O-])ccc12 | Non-toxic | <40 |  |
| 28 | 43 |  |  | Nc1ccc(S(=O)(=O)O)c2ccccc12 | Non-toxic | <40 |  |
| 29 | 15 |  |  | CC1=NN(c2ccccc2)C(=O)C1 [EDARAVONE] | Non-toxic | 70 | 40 |
|  |  | 8.2 | 70.1 | Nc1ccc(S(=O)(=O)O)cc1 | Non-toxic | <40 |  |
|  |  | 42.1 | 77.3 | NS(=O)(=O)O [SULFAMATE] | Non-toxic | <40 |  |
|  |  | 6.1 | 44.3 | CC1=NN(c2ccc(S(=O)(=O)O)cc2)C(=O)C1 | Non-toxic | 72 | 40 |
| 27 | 4 |  |  | Nc1c(S(=O)(=O)O)cc(Br)c2c1C(=O)c1ccccc1C2=O | Non-toxic | <40 |  |
|  |  | 1.32 | 10.4 | Nc1ccc2cc(S(=O)(=O)O)cc(O)c2c1 | Non-toxic | <40 |  |
|  |  | 47.6 | 72.9 | Nc1ccc(Nc2ccc([N+](=O)[O-])cc2)c(S(=O)(=O)O)c1 | Non-toxic | 42 |  |

From ChEMBL document CHEMBL3085736, “Identification of sulfonic acids as efficient ecto-5'-nucleotidase inhibitors” (Eur J Med Chem, 2013)
